Experimental data: patent US20060084789A1, “Immunotherapeutic and immunoprphylactic reagents” (priority 2002, published 2006)

Tested on: RGP-specific TCL
Assay: TCL proliferation assay (3H-thymidine incorporation, stimulation index)
Type: cell-based, human
Details: for Lol p 1 peptides recognised by one or more TCL: 34 TCL tested, all recognised with the exception of the four named; for Proliferative response, stimulation index: peptides 10 μg/ml; for T cell responses to Lol p 5 peptides: 21 TCL tested
Description: Generation of Short-Term RGP-Specific TCL
PBMC were cultured in 24-well plates (Costar, Mass., USA) at 2.5×10^6 cells/well with RGP extract at a concentration of 25 or 50 μg/ml in RPMI 1640 medium (Gibco BRL, NY, USA) supplemented with 2 mM GlutaMAX I (Gibco BRL), 0.05 mg/ml gentamicin (David Bull Laboratories, Mulgrave, Victoria, Australia) and 5% heat-inactivated hunan AB^+ serum (Sigma, Mo., USA) for 7 days at 37° C. in a 5% CO2 humidified incubator. At day 7, cells were washed once and restimulated in 24-well plates at 5×10^5 cells/well width 25 or 50 μg/ml of RGP extract in the presence of 5×10^5 cells/well irradiated (3000 rads) autologous PBMC as a source of antigen presenting cells (APC). At day 2 following restimulation, 10 U/ml of Lymphocult T-LF (LC; Biotest, Germany) was added as a source of IL-2 and at day 4, 1 ml of culture medium was removed and replaced with fresh medium and 10 U/ml of LC. […] In all experiments T cells were rested for 6 to 7 days after the last addition of antigen and APC before testing.
T cells (5×10^4/well) were cultured in 96-well U bottom plates with either RGP extract at concentrations ranging from 25 to 200 μg/ml, purified Lol p 1 (0.12 to 2 μg/ml) or Lol p 5 (0.1 to 10 μg/ml), or Lol p 1 or Lol p 5 peptides (10 μg/ml), or medium alone (to determine background levels of proliferation), in the presence of washed autologous irradiated (3000 rads) PBMC (5×10^4/well). […] Cultures were incubated for 3 days, pulsed for the last 16 hours with ^3H-thymidine (1 μCi/well) and harvested onto glass fibre filters. ^3H-thymidine incorporation was measured by liquid scintillation spectroscopy and the mean counts per minute (cpm) for triplicate cultures was determined. Responses were considered positive if the stimulation index (SI, cpm of antigen-stimulated T cells divided by cpm of unstimulated T cells) was ≧2.5. Where several concentrations of allergen were tested (i.e., RGP, Lol p 1 and Lol p 5), values corresponding to the highest proliferation are shown.

[1] = Subject 3 TCL, Lol p 1 series (Table 3), RGP and Lol p 1 maximal response
[2] = Subject 11 TCL, Lol p 1 series (Table 3), RGP and Lol p 1 maximal response
[3] = Subject 4 TCL, Lol p 5 series (Table 4), RGP and Lol p 5 maximal response
[4] = Subject 12 TCL, Lol p 5 series (Table 4), RGP and Lol p 5 maximal response
[5] = Subject 20 TCL, Lol p 5 series (Table 4), RGP and Lol p 5 maximal response
[6] = Subject 12 TCL, Lol p 1 series (Table 3), RGP and Lol p 1 maximal response
[7] = Subject 2 TCL, Lol p 1 series (Table 3), RGP and Lol p 1 maximal response
[8] = Subject 7 TCL, Lol p 5 series (Table 4), RGP and Lol p 5 maximal response
[9] = Subject 4 TCL, Lol p 1 series (Table 3), RGP and Lol p 1 maximal response
[10] = Subject 11 TCL, Lol p 5 series (Table 4), RGP and Lol p 5 maximal response
[11] = Subject 35 TCL, Lol p 5 series (Table 4), RGP and Lol p 5 maximal response
[12] = Subject 36 TCL, Lol p 5 series (Table 4), RGP and Lol p 5 maximal response
[13] = Subject 37 TCL, Lol p 5 series (Table 4), RGP and Lol p 5 maximal response

## Lol p 1 peptide 199-218: synthetic 20-mer, amino acids 199-218 of Lol p 1A (SEQ ID NO:1) (RIDTPDKLTGPFTVRYTTEG; Lolium perenne)
  Lol p 1 peptides recognised by one or more TCL: exception

## Lol p 1 peptide 217-236: synthetic 20-mer, amino acids 217-236 of Lol p 1A (SEQ ID NO:1) (EGGTKSEVEDVIPEGWKADT; Lolium perenne)
[1]
  Proliferative response, stimulation index: 3.3
[2]
  Proliferative response, stimulation index: 4.4

## Lol p 5 peptide 136-155: synthetic 20-mer, amino acids 136-155 of Lol p 5A (SEQ ID NO:2) (EVPAAKIPTGELQIVDKIDA; Lolium perenne)
  T cell responses to Lol p 5 peptides: nor were T cell responses detected

## KFTVFESAFNKALNECTGGA (Lolium perenne) [Lol p 5 peptide 172-191]
[3]
  Proliferative response, stimulation index: 2.7
[4]
  Proliferative response, stimulation index: 2.5
[5]
  Proliferative response, stimulation index: 3.0

## Lol p 5 peptide 163-182: synthetic 20-mer, amino acids 163-182 of Lol p 5A (SEQ ID NO:2) (AANAAPTNDKFTVFESAFNK; Lolium perenne)
[5]
  Proliferative response, stimulation index: 2.5

## Lol p 1 peptide 46-65: synthetic 20-mer, amino acids 46-65 of Lol p 1A (SEQ ID NO:1) (VDKAPFNGMTGCGNTPIFKD; Lolium perenne)
Subject 5 TCL, Lol p 1 series (Table 3), RGP and Lol p 1 maximal response
  Proliferative response, stimulation index: 8.4
[6]
  Proliferative response, stimulation index: 4.0

## Lol p 5 peptide 127-146: synthetic 20-mer, amino acids 127-146 of Lol p 5A (SEQ ID NO:2) (VHAVKPATEEVPAAKIPTGE; Lolium perenne)
  T cell responses to Lol p 5 peptides: nor were T cell responses detected

## AGELELQFRRVKCKYPDDTK (Lolium perenne) [Lol p 1 peptide 127-146]
[7]
  Proliferative response, stimulation index: 5.8
Subject 13 TCL, Lol p 1 series (Table 3), RGP and Lol p 1 maximal response
  Proliferative response, stimulation index: 3.7
Subject 17 TCL, Lol p 1 series (Table 3), RGP and Lol p 1 maximal response
  Proliferative response, stimulation index: 3.0

## Lol p 5 peptide 73-92: synthetic 20-mer, amino acids 73-92 of Lol p 5A (SEQ ID NO:2) (LATSAAKAPGLIPKLDTAYD; Lolium perenne)
[8]
  Proliferative response, stimulation index: 2.6

## Lol p 5 peptide 91-110: synthetic 20-mer, amino acids 91-110 of Lol p 5A (SEQ ID NO:2) (YDVAYKAAEGATPEAKYDAF; Lolium perenne)
  T cell responses to Lol p 5 peptides: nor were T cell responses detected

## Lol p 1 peptide 91-110: synthetic 20-mer, amino acids 91-110 of Lol p 1A (SEQ ID NO:1)
[9]
  Proliferative response, stimulation index: 3.6
[2]
  Proliferative response, stimulation index: 4.9

## AFSESSKGLLATSAAKAPGL (Lolium perenne) [Lol p 5 peptide 64-83]
[3]
  Proliferative response, stimulation index: 2.8
[8]
  Proliferative response, stimulation index: 2.8

## Lol p 5 peptide 82-101: synthetic 20-mer, amino acids 82-101 of Lol p 5A (SEQ ID NO:2) (GLIPKLDTAYDVAYKAAEGA; Lolium perenne)
  T cell responses to Lol p 5 peptides: nor were T cell responses detected

## Lol p 1 peptide 208-227: synthetic 20-mer, amino acids 208-227 of Lol p 1A (SEQ ID NO:1) (GPFTVRYTTEGGTKSEVEDV; Lolium perenne)
  Lol p 1 peptides recognised by one or more TCL: exception
[1]
  Proliferative response, stimulation index: 4.4

## PEVKYAVFEAALTKAITAMT (Lolium perenne) [Lol p 5 peptide 217-236]
[10]
  Proliferative response, stimulation index: 5.4
[5]
  Proliferative response, stimulation index: 4.5
Subject 27 TCL, Lol p 5 series (Table 4), RGP and Lol p 5 maximal response, † affinity purified Lol p 5
  Proliferative response, stimulation index: 9.5
[11]
  Proliferative response, stimulation index: 3.5
[12]
  Proliferative response, stimulation index: 3.5
[13]
  Proliferative response, stimulation index: 11.0

## Lol p 1 peptide 145-164: synthetic 20-mer, amino acids 145-164 of Lol p 1A (SEQ ID NO:1) (GTKPTFHVEKASNPNYLAIL; Lolium perenne)
[6]
  Proliferative response, stimulation index: 4.5

## Lol p 1 peptide 118-137: synthetic 20-mer, amino acids 118-137 of Lol p 1A (SEQ ID NO:1) (KGEEQKLRASAGELELQFRR; Lolium perenne)
[7]
  Proliferative response, stimulation index: 6.2
[6]
  Proliferative response, stimulation index: 2.5

## Lol p 5 peptide 109-128: synthetic 20-mer, amino acids 109-128 of Lol p 5A (SEQ ID NO:2) (AFVTALTEALRVIAGALEVH; Lolium perenne)
  T cell responses to Lol p 5 peptides: nor were T cell responses detected

## Lol p 1 peptide 55-74: synthetic 20-mer, amino acids 55-74 of Lol p 1A (SEQ ID NO:1) (TGCGNTPIFKDGRGCGSCFE; Lolium perenne)
  Lol p 1 peptides recognised by one or more TCL: exception

## Lol p 1 peptide 82-101: synthetic 20-mer, amino acids 82-101 of Lol p 1A (SEQ ID NO:1) (SCSGEAVTVTITDDNEEPIA; Lolium perenne)
[1]
  Proliferative response, stimulation index: 3.6
[2]
  Proliferative response, stimulation index: 3.6

## Lol p 1 peptide 221-240: synthetic 20-mer, amino acids 221-240 of Lol p 1A (SEQ ID NO:1) (KSEVEDVIPEGWKADTSYSA; Lolium perenne)
[2]
  Proliferative response, stimulation index: 3.3

## Lol p 1 peptide 163-182: synthetic 20-mer, amino acids 163-182 of Lol p 1A (SEQ ID NO:1) (ILVKYVDGDGDVVAVDIKEK; Lolium perenne)
  Lol p 1 peptides recognised by one or more TCL: exception
Subject 23 TCL, Lol p 1 series (Table 3), RGP and Lol p 1 maximal response
  Proliferative response, stimulation index: 4.2

## VAAAANAPPADKFKIFEAAF (Lolium perenne) [Lol p 5 peptide 46-65]
[4]
  Proliferative response, stimulation index: 6.5
[12]
  Proliferative response, stimulation index: 2.7
[13]
  Proliferative response, stimulation index: 6.6

## Lol p 1 peptide 172-191: synthetic 20-mer, amino acids 172-191 of Lol p 1A (SEQ ID NO:1) (GDVVAVDIKEKGKDKWIELK; Lolium perenne)
Subject 9 TCL, Lol p 1 series (Table 3), RGP and Lol p 1 maximal response
  Proliferative response, stimulation index: 2.5

## Lol p 5 peptide 181-200: synthetic 20-mer, amino acids 181-200 of Lol p 5A (SEQ ID NO:2) (NKALNECTGGAYETYKFIPS; Lolium perenne)
[5]
  Proliferative response, stimulation index: 3.4

## FEIKCTKPESCSGEAVTVTI (Lolium perenne) [Lol p 1 peptide 73-92]
Subject 1 TCL, Lol p 1 series (Table 3), RGP and Lol p 1 maximal response
  Proliferative response, stimulation index: 3.9
[9]
  Proliferative response, stimulation index: 2.9
[2]
  Proliferative response, stimulation index: 2.6

## Lol p 5 peptide 100-119: synthetic 20-mer, amino acids 100-119 of Lol p 5A (SEQ ID NO:2) (GATPEAKYDAFVTALTEALR; Lolium perenne)
[3]
  Proliferative response, stimulation index: 3.8
[10]
  Proliferative response, stimulation index: 10.0
[4]
  Proliferative response, stimulation index: 7.5
[11]
  Proliferative response, stimulation index: 2.5
